Legend:
Test in all cases: radiometric filter-binding kinase assay
[1] = target: RIPK2 (human) (UniProt O43353)
[2] = target: PIM2 (human) (UniProt Q9P1W9)
[3] = target: PIM3 (human) (UniProt Q86V86)
[4] = target: IGF1R (human) (UniProt P08069)
[5] = target: MAPK12 (human) (UniProt P53778)
[6] = target: PIM1 (human) (UniProt P11309)
[7] = target: EPHB3 (human) (UniProt P54753)
[8] = target: PLK1 (human) (UniProt P53350)
[9] = target: SRC (human) (UniProt P12931)
[10] = target: MKNK2 (human) (UniProt Q9HBH9)
MKNK2 (human), sequence (Q9HBH9 whole entry, looked up): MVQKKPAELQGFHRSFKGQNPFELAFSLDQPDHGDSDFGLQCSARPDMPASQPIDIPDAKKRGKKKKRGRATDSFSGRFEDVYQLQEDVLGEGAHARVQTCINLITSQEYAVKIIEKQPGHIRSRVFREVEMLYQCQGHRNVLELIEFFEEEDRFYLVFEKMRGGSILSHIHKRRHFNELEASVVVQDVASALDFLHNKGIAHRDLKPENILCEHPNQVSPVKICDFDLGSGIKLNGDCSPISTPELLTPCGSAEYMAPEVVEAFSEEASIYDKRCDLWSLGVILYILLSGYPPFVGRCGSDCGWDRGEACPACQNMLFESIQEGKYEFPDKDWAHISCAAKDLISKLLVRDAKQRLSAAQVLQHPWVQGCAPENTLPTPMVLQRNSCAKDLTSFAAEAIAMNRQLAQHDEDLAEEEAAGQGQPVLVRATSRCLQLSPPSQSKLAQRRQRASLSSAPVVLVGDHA

[11] = target: NEK2 (human) (UniProt P51955)
[12] = target: FLT1 (human) (UniProt P17948)
[13] = target: MAPK14 (human) (UniProt Q16539)
MAPK14 (human), sequence (Q16539 whole entry, looked up): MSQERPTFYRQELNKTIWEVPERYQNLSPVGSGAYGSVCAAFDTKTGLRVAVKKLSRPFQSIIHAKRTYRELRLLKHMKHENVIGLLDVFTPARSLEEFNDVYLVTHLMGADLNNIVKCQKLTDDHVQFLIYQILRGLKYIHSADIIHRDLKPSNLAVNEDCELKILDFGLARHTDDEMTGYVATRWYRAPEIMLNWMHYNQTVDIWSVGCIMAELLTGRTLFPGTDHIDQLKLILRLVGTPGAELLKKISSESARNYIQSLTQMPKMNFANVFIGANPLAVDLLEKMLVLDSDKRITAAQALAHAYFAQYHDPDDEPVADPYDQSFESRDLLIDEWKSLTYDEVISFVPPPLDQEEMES

[14] = target: DYRK3 (human) (UniProt O43781)
[15] = target: MARK2 (human) (UniProt Q7KZI7)
[16] = target: BTK (human) (UniProt Q06187)
[17] = target: STK3 (human) (UniProt Q13188)
STK3 (human), sequence (Q13188 whole entry, looked up): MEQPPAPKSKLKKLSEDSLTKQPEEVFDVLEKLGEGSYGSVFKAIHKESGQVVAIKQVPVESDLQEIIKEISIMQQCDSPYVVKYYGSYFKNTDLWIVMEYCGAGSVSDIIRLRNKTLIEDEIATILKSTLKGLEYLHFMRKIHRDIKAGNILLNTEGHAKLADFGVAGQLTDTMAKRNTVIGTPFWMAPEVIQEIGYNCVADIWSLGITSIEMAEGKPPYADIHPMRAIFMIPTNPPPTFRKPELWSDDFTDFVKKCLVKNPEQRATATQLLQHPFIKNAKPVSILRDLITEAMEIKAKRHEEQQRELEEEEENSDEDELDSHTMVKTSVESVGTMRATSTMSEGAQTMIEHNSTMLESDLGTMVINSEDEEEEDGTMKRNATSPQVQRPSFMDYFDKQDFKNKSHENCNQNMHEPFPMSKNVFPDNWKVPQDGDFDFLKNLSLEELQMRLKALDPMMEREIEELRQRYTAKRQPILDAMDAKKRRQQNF

[18] = target: CHEK2 (human) (UniProt O96017)
[19] = target: MINK1 (human) (UniProt Q8N4C8)
[20] = target: PHKG1 (human) (UniProt Q16816)
PHKG1 (human), sequence (Q16816 whole entry, looked up): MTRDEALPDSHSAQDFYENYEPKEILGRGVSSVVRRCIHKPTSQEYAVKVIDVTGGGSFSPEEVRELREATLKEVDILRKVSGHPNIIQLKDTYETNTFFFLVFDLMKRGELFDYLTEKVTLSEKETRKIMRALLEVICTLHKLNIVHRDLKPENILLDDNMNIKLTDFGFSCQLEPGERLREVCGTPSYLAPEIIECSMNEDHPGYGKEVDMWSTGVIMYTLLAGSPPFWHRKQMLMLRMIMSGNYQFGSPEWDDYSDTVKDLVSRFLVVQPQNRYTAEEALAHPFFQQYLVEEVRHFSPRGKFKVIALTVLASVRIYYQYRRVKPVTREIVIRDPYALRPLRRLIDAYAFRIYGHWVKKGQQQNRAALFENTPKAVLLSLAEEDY

[21] = target: MAP3K11 (human) (UniProt Q16584)
[22] = target: HIPK2 (human) (UniProt Q9H2X6)
[23] = target: PKN2 (human) (UniProt Q16513)
PKN2 (human), sequence (Q16513 whole entry, looked up): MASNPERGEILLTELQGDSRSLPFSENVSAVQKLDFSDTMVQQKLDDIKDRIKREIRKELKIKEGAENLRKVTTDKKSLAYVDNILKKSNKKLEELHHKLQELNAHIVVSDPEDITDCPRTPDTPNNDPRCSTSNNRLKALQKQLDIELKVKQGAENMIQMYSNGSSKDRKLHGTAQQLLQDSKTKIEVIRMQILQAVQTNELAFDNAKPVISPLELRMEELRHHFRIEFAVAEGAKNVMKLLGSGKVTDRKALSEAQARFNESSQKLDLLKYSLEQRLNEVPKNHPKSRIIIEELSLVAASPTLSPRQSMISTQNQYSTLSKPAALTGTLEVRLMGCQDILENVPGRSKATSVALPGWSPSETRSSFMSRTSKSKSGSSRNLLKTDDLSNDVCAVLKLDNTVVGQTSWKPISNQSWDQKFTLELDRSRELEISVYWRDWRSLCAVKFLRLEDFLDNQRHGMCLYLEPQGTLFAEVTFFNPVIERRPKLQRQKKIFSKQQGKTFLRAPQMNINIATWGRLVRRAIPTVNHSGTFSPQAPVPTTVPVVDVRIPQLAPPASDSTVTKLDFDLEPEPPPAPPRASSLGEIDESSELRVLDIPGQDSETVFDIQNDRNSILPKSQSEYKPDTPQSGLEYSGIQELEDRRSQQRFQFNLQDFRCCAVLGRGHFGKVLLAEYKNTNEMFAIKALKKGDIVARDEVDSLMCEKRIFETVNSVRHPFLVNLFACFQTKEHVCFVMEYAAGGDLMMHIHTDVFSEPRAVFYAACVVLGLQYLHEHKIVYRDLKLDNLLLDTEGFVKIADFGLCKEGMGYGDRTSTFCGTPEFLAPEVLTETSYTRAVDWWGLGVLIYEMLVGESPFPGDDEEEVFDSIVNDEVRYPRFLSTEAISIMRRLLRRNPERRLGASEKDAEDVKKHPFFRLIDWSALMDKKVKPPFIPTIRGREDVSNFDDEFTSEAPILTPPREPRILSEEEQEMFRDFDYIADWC

[24] = target: MELK (human) (UniProt Q14680)
[25] = test system: ROCK2 (rat); conditions: accession and sequence are those of the human protein
[26] = test system: PAK2 (human), Q13177 [T402E]
[27] = target: DYRK1A (human) (UniProt Q13627)
[28] = target: PAK6 (human) (UniProt Q9NQU5)
[29] = target: MKNK1 (human) (UniProt Q9BUB5)
[30] = target: NUAK1 (human) (UniProt O60285)

IGF1R (human), sequence (P08069 whole entry, looked up): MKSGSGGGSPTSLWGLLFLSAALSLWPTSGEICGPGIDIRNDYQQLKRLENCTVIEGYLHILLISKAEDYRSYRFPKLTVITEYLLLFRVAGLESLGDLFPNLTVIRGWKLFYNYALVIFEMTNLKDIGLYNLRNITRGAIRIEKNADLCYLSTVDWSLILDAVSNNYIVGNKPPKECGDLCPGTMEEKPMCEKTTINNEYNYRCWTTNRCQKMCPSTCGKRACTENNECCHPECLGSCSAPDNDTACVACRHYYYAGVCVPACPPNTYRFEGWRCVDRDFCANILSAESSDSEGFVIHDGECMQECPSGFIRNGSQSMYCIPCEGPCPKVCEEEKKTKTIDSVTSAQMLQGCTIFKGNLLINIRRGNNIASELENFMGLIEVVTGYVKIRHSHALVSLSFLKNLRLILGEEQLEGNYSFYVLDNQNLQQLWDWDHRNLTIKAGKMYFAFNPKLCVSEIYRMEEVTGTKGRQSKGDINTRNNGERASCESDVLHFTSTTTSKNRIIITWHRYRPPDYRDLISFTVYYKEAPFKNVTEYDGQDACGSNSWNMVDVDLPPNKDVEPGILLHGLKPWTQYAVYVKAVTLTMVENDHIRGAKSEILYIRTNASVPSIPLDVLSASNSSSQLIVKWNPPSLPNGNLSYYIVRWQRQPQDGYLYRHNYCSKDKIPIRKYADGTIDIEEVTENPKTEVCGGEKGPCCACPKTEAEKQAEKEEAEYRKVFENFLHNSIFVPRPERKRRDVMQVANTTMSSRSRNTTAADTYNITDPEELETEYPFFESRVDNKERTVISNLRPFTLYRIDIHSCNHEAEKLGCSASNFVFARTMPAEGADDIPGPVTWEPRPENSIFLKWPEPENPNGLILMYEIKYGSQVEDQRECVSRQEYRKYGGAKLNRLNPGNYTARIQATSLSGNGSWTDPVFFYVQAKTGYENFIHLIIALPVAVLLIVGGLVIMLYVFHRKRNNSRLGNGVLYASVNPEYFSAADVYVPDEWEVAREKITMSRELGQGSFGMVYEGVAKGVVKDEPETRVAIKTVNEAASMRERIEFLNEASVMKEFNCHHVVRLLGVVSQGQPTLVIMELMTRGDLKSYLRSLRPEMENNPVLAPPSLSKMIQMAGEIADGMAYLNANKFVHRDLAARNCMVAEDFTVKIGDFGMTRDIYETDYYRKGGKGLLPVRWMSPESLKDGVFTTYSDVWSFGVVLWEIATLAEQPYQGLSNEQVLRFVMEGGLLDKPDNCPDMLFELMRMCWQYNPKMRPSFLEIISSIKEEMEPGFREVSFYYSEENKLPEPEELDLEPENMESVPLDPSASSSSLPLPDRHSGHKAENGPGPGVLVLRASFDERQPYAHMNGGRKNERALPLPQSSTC
MAPK12 (human), sequence (P53778 whole entry, looked up): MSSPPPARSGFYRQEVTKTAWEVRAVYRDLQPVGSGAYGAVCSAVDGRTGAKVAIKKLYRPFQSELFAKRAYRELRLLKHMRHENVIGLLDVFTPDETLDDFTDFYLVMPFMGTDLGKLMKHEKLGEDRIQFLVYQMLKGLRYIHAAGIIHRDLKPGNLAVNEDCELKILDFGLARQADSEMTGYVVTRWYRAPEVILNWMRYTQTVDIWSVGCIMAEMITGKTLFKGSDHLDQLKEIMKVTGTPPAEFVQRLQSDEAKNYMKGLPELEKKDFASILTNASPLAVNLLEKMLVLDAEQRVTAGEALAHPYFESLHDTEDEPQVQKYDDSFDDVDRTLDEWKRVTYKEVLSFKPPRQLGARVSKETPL

CNc1nc(-c2ccc3c(N)n[nH]c3c2)cc(N2C[C@@H](C(=O)NC3CCCCC3)CC[C@H]2C)n1
residual activity ([1]; compound 0.01 µM): 110% | residual activity ([1]; compound 0.1 µM): 114% | residual activity ([1]; compound 1.0 µM): 107% | residual activity ([2]; compound 0.01 µM): 97% | residual activity ([2]; compound 0.1 µM): 100% | residual activity ([2]; compound 1.0 µM): 97% | residual activity ([3]; compound 0.01 µM): 105% | residual activity ([3]; compound 0.1 µM): 112% | residual activity ([3]; compound 1.0 µM): 97% | residual activity ([4]; compound 0.01 µM): 126% | residual activity ([4]; compound 0.1 µM): 115% | residual activity ([4]; compound 1.0 µM): 107% | residual activity ([5]; compound 0.01 µM): 109% | residual activity ([5]; compound 0.1 µM): 110% | residual activity ([5]; compound 1.0 µM): 106% | residual activity ([6]; compound 0.01 µM): 99% | residual activity ([6]; compound 0.1 µM): 100% | residual activity ([6]; compound 1.0 µM): 98% | residual activity ([7]; compound 0.01 µM): 106% | residual activity ([7]; compound 0.1 µM): 107% | residual activity ([7]; compound 1.0 µM): 91% | residual activity ([8]; compound 0.01 µM): 95% | residual activity ([8]; compound 0.1 µM): 113% | residual activity ([9]; compound 0.01 µM): 101% | residual activity ([9]; compound 0.1 µM): 105% | residual activity ([9]; compound 1.0 µM): 97% | residual activity ([10]; compound 0.01 µM): 91% | residual activity ([10]; compound 0.1 µM): 100% | residual activity ([10]; compound 1.0 µM): 106% | residual activity ([11]; compound 0.01 µM): 118% | residual activity ([11]; compound 0.1 µM): 118% | residual activity ([11]; compound 1.0 µM): 106% | residual activity ([12]; compound 0.01 µM): 98% | residual activity ([12]; compound 0.1 µM): 108% | residual activity ([12]; compound 1.0 µM): 89% | residual activity ([13]; compound 0.01 µM): 105% | residual activity ([13]; compound 0.1 µM): 109% | residual activity ([13]; compound 1.0 µM): 103% | residual activity ([14]; compound 0.01 µM): 100% | residual activity ([14]; compound 0.1 µM): 103% | residual activity ([14]; compound 1.0 µM): 93% | residual activity ([15]; compound 0.01 µM): 113% | residual activity ([15]; compound 0.1 µM): 114% | residual activity ([15]; compound 1.0 µM): 109% | residual activity ([16]; compound 0.01 µM): 126% | residual activity ([16]; compound 0.1 µM): 121% | residual activity ([16]; compound 1.0 µM): 110% | residual activity ([17]; compound 0.01 µM): 116% | residual activity ([17]; compound 0.1 µM): 128% | residual activity ([17]; compound 1.0 µM): 112% | residual activity ([18]; compound 0.01 µM): 129% | residual activity ([18]; compound 0.1 µM): 121% | residual activity ([19]; compound 0.01 µM): 121% | residual activity ([19]; compound 0.1 µM): 110% | residual activity ([19]; compound 1.0 µM): 105% | residual activity ([20]; compound 0.01 µM): 106% | residual activity ([20]; compound 0.1 µM): 108% | residual activity ([20]; compound 1.0 µM): 103% | residual activity ([21]; compound 0.01 µM): 100% | residual activity ([21]; compound 0.1 µM): 110% | residual activity ([21]; compound 1.0 µM): 87% | residual activity ([22]; compound 0.01 µM): 119% | residual activity ([22]; compound 0.1 µM): 124% | residual activity ([22]; compound 1.0 µM): 113% | residual activity ([23]; compound 0.01 µM): 90% | residual activity ([23]; compound 0.1 µM): 102% | residual activity ([23]; compound 1.0 µM): 82% | residual activity ([24]; compound 0.01 µM): 115% | residual activity ([24]; compound 0.1 µM): 77% | residual activity ([24]; compound 1.0 µM): 23% | residual activity ([25]; compound 0.01 µM): 96% | residual activity ([25]; compound 0.1 µM): 92% | residual activity ([25]; compound 1.0 µM): 70% | residual activity ([26]; compound 0.01 µM): 105% | residual activity ([26]; compound 0.1 µM): 119% | residual activity ([26]; compound 1.0 µM): 105% | residual activity ([27]; compound 0.01 µM): 102% | residual activity ([27]; compound 0.1 µM): 107% | residual activity ([27]; compound 1.0 µM): 103% | residual activity ([28]; compound 0.01 µM): 108% | residual activity ([28]; compound 0.1 µM): 120% | residual activity ([28]; compound 1.0 µM): 124% | residual activity ([29]; compound 0.01 µM): 106% | residual activity ([29]; compound 0.1 µM): 108% | residual activity ([29]; compound 1.0 µM): 111% | residual activity ([30]; compound 0.01 µM): 120% | residual activity ([30]; compound 0.1 µM): 105% | residual activity ([30]; compound 1.0 µM): 47%

Reference: the kinase profiling compilation of Christmann-Franck et al. (2016)
